Earlier results, collected in patent US20050065133A1, “Pharmaceutical compositions and methods comprising combinations of 2-alkylidene-19-nor-vitamin D derivatives and an EP2 or EP4 selective agonist” (Pfizer Inc, priority 2003, published 2005).
Read-outs that look alike come from different tables or passages of the source.

What was measured:
[1] = system: Male Holtzman strain weanling rats; details: single intrajugular injection, 650 pmol, 24 h later, mean ± SEM
[2] = system: Male weanling rats; details: for Serum Calcium (mg/100 ml): intraperitoneal, vitamin D-deficient low-calcium diet, 24 h after last dose, mean ± SEM
[3] = system: HL-60 cells

Compound | Serum Calcium (mg/100 ml) [1] [mg/100 ml] | Serum Calcium (mg/100 ml) ([2]; 130 pmol/day/7 days) | Serum Calcium (mg/100 ml) ([2]; 260 pmol/day/7 days) | inducing differentiation of HL-60 cells to the monocyte, in words [3] | Serum Calcium (mg/100 ml) ([2]; 260 pmol/day/7 days, listed as 2-methylene-19-nor-20S-1,25-(OH)2D3) | selectivity for bone calcium mobilization over intestinal calcium transport, in words ([2]; chronic 7-day dosing) | bone calcium mobilization activity relative to 1,25-(OH)2D3 ([2]; chronic 7-day dosing, stated as likely) | bone calcium mobilization, in words ([2]; given for 7 days in a chronic mode, 130 and 260 pmol/day)
C=C1/C(=C\C=C2/CCC[C@]3(C)[C@@H]([C@H](C)CCCC(C)(C)O)CC[C@@H]23)C[C@@H](O)C[C@@H]1O [1,25-(OH)2D3, 1,25-dihydroxyvitamin D3, reference compound] | 5.7 ± 0.2 | 13.8 | 7.2 ± 0.5 | – | – | – | – | –
C=C1[C@H](O)CC(=C/C=C2\CCC[C@]3(C)[C@@H]([C@@H](C)CCCC(C)(C)O)CC[C@@H]23)C[C@H]1O [2-Methylene-19-Nor-20S-1,25-(OH)2D3, (20S)-1α,25-dihydroxy-2-methylene-19-nor-vitamin D3] | 8.0 ± 0.1 | 13.8 ± 0.5 | 14.4 ± 0.6 | extremely potent | 14 | selective for the mobilization of calcium from bone | – | –
C=C1[C@H](O)CC(=C/C=C2\CCC[C@]3(C)[C@@H]([C@H](C)CCCC(C)(C)O)CC[C@@H]23)C[C@H]1O [2-Methylene-19-Nor-1,25-(OH)2D3, 1α,25-dihydroxy-2-methylene-19-nor-vitamin D3] | 6.4 ± 0.1 | 9.9 ± 0.2 | 9.6 ± 0.3 | activity similar to 1,25-(OH)2D3 | – | selective for the mobilization of calcium from bone | 10-100 times | extremely strong
